# Data published in paper PMC3735853 (Journal of biomolecular screening, 2013).
# Like-named read-outs stand apart in the source and are kept apart here.
# Key:
# hV2R[L^83Q] = hV2R[L^83Q] (Homo sapiens, UniProt P30518, L83Q); experiment: uHTS optimized primary V2R pharmacoperone assay; type: cell-based; details: for LOPAC Screen Average %Response +/−Std Dev: single concentration of 6 μM (0.4% DMSO), normalized to 100 nM SR121463 (positive) and DMSO (negative), triplicate
# V2R = details: cited from earlier work
LOPAC Screen Average %Response +/−Std Dev (hV2R[L^83Q]),lowest level detectable in the assay system (hV2R[L^83Q]; no-wash protocol) [nM],"EC50 (hV2R[L^83Q]; read-out: EC50 (pharmacoperone rescue), presence of 1 μM vasopressin, no-wash protocol, absence of doxycycline (n=4)) [nM]",Compound,EC50 (hV2R[L^83Q]) [nM],"Ki (V2R; read-out: Ki (antagonist), no reference given) [nM]","Ki (V2R; read-out: Ki of SR121463 (literature value), used to perform the fit) [nM]"
104+/−0%,,,C=C[C@@]1(C)CC(=O)[C@]2(O)[C@@]3(C)[C@@H](O)CCC(C)(C)[C@@H]3[C@H](O)[C@H](OC(C)=O)[C@@]2(C)O1 [Forskolin],430,,
74+/−2%,,,"Cc1ccccc1N1CCN(S(=O)(=O)C[C@]23CC[C@H](C[C@@H]2NC(=O)[C@@H](N)CCS(C)(=O)=O)C3(C)C)CC1 [L-368,899]",,,
,1,1.97 ± 0.25,CCOc1ccc2c(c1)C1(CCC(OCCN3CCOCC3)CC1)C(=O)N2S(=O)(=O)c1ccc(C(=O)NC(C)(C)C)cc1OC (stereo not drawn) [SR121463],,~1,0.94

Compound,LOPAC Screen Average %Response +/−Std Dev (hV2R[L^83Q]),lowest level detectable in the assay system (hV2R[L^83Q]; no-wash protocol) [nM],"EC50 (hV2R[L^83Q]; read-out: EC50 (pharmacoperone rescue), presence of 1 μM vasopressin, no-wash protocol, absence of doxycycline (n=4)) [nM]",EC50 (hV2R[L^83Q]) [nM],"Ki (V2R; read-out: Ki (antagonist), no reference given) [nM]","Ki (V2R; read-out: Ki of SR121463 (literature value), used to perform the fit) [nM]"
C[C@H]1CCC/C=C/[C@@H]2C[C@H](O)C[C@H]2[C@H](O)/C=C/C(=O)O1 [Brefeldin A],43+/−1%,,,270,,
